Data from ChEMBL document CHEMBL4020744 (Bioorg Med Chem Lett, 2017).

Legend:
Rift Valley fever virus = assay: Antiviral activity against Rift Valley fever virus infected in human HeLa cells preincubated for 2 to 3 hrs followed by viral infection measured after 3 days by fluorescence assay; assay type: functional, cell-based
Lassa virus = assay: Antiviral activity against Lassa virus infected in human HuH7 cells pretreated for 2 to 3 hrs followed by viral infection measured after 3 days by fluorescence assay; assay type: functional, cell-based; details: Mammarenavirus lassaense, Huh-7
Huh-7 = assay: Cytotoxicity against human HuH7 cells after 2 to 3 hrs by CellTiter-Glo assay; assay type: cell-based
Marburgvirus = assay: Antiviral activity against Marburg virus Ci67 infected in human HeLa cells preincubated for 2 hrs followed by viral infection measured after 15 to 20 hrs by Draq staining based assay; assay type: functional, cell-based, Lake Victoria marburgvirus - Ci67; details: Orthomarburgvirus
Ebolavirus [1] = assay: Antiviral activity against Ebolavirus Makona infected in human HeLa cells preincubated for 2 hrs followed by viral infection measured after 15 to 20 hrs by Draq5 staining based assay; assay type: functional, cell-based, Zaire ebolavirus Makona; details: Orthoebolavirus
[2] = Cytotoxicity against human HeLa cells after 2 hrs by Draq staining based assay; assay type: cell-based
Ebolavirus [3] = assay: Antiviral activity against Sudan virus Gulu infected in human HeLa cells preincubated with cells for 2 hrs followed by viral infection measured after 48 hrs by immunostaining based assay; assay type: functional, cell-based, Sudan ebolavirus; details: Orthoebolavirus

SMILES	EC50 (Rift Valley fever virus)	EC50 (Lassa virus)	CC50 (Huh-7)	EC50 (Marburgvirus)	EC50 (Ebolavirus [1])	CC50 at 2 h [2]	EC50 (Ebolavirus [3])
CCC(CC)COC(=O)[C@H](C)N[P@](=O)(OCCOCn1cnc(-c2cnc(N)nc2OC)c1)Oc1ccccc1	> 50 µM	> 50 µM	> 50 µM	62 µM	29 µM	> 100 µM	7 µM
COc1nc(N)ncc1-c1cn(COCCOC(C)=O)cn1				70 µM	44 µM	> 100 µM	20 µM
COc1nc(N)ncc1-c1cn(COCCO)cn1	> 50 µM	> 50 µM	> 50 µM	> 100 µM	> 100 µM	> 100 µM	> 100 µM
